Measured values as given in paper PMC8484140 (Targeted Oncology, 2021).
“Also recorded” adds a separate entry of the source.

Assay: Safety and DLT evaluation
Assay type: in vivo, human
[1] = DLT observation stage, 5 mg group
[2] = Stage I, 3 mg/week monotherapy, n=4
[3] = Stage I, 5 mg/week monotherapy, n=12
[4] = Stage I, 7 mg/week monotherapy, n=3
[5] = most common grade 3/4 AEs, 19 dose-escalation patients, stage not stated

Nc1ccccc1NC(=O)c1ccc(CNC(=O)OCc2cccnc2)cc1 [Entinostat]
Tolerability (3, 5, 7 mg/week): well tolerated at all doses
Grade 3/4 AEs [1]: 16.7%
Suspicious DLT (G3 ventricular tachycardia) [1]: one
Grade 3/4 AEs (DLT observation stage, 7 mg group): 33.3%
CTCAE grade 3 AE (Stage I, 3 mg/week group): no CTCAE grade 3 AE occurred
AKP elevation, entinostat-related AE of all grades [2]: 0 No. (%)
ALT elevation, entinostat-related AE of all grades [2]: 0 No. (%)
AST elevation, entinostat-related AE of all grades [2]: 0 No. (%)
Abdominal pain, entinostat-related AE of all grades [2]: 0 No. (%)
Anemia, entinostat-related AE of all grades [2]: 2 (50) No. (%)
Back pain, entinostat-related AE of all grades [2]: 0 No. (%)
Chest pain, entinostat-related AE of all grades [2]: 0 No. (%)
Creatine increase, entinostat-related AE of all grades [2]: 0 No. (%)
Creatinine phosphokinase increase, entinostat-related AE of all grades [2]: 0 No. (%)
Debilitation, entinostat-related AE of all grades [2]: 0 No. (%)
Diarrhea, entinostat-related AE of all grades [2]: 0 No. (%)
Fatigue, entinostat-related AE of all grades [2]: 0 No. (%)
Flatulence, entinostat-related AE of all grades [2]: 0 No. (%)
Headache, entinostat-related AE of all grades [2]: 0 No. (%)
Hypoalbuminemia, entinostat-related AE of all grades [2]: 0 No. (%)
Hypocalcemia, entinostat-related AE of all grades [2]: 0 No. (%)
Hypokalemia, entinostat-related AE of all grades [2]: 0 No. (%)
Hypoproteinemia, entinostat-related AE of all grades [2]: 0 No. (%)
LDH increase, entinostat-related AE of all grades [2]: 0 No. (%)
Leukopenia, entinostat-related AE of all grades [2]: 3 (75) No. (%)
Limb pain, entinostat-related AE of all grades [2]: 0 No. (%)
Nausea, entinostat-related AE of all grades [2]: 0 No. (%)
Neutropenia, entinostat-related AE of all grades [2]: 3 (75) No. (%)
Palpitation, entinostat-related AE of all grades [2]: 0 No. (%)
Serum Ca^2+ decrease, entinostat-related AE of all grades [2]: 0 No. (%)
Serum Na+ decrease, entinostat-related AE of all grades [2]: 0 No. (%)
Serum albumin decrease, entinostat-related AE of all grades [2]: 0 No. (%)
Serum phosphate decrease, entinostat-related AE of all grades [2]: 0 No. (%)
Serum urea increase, entinostat-related AE of all grades [2]: 0 No. (%)
Thrombocytopenia, entinostat-related AE of all grades [2]: 0 No. (%)
Γ-GT elevation, entinostat-related AE of all grades [2]: 0 No. (%)
α-HBDH elevation, entinostat-related AE of all grades [2]: 0 No. (%)
Cases of CTCAE grade 3 AE (Stage I, 5 mg/week group): four
AKP elevation, entinostat-related AE of all grades [3]: 2 (16.7) No. (%)
ALT elevation, entinostat-related AE of all grades [3]: 2 (16.7) No. (%)
AST elevation, entinostat-related AE of all grades [3]: 2 (16.7) No. (%)
Abdominal pain, entinostat-related AE of all grades [3]: 2 (16.7) No. (%)
Anemia, entinostat-related AE of all grades [3]: 0 No. (%)
Back pain, entinostat-related AE of all grades [3]: 3 (25) No. (%)
Chest pain, entinostat-related AE of all grades [3]: 2 (16.7) No. (%)
Creatine increase, entinostat-related AE of all grades [3]: 0 No. (%)
Creatinine phosphokinase increase, entinostat-related AE of all grades [3]: 0 No. (%)
Debilitation, entinostat-related AE of all grades [3]: 2 (16.7) No. (%)
Diarrhea, entinostat-related AE of all grades [3]: 0 No. (%)
Fatigue, entinostat-related AE of all grades [3]: 2 (16.7) No. (%)
Flatulence, entinostat-related AE of all grades [3]: 2 (16.7) No. (%)
Headache, entinostat-related AE of all grades [3]: 3 (25) No. (%)
Hypoalbuminemia, entinostat-related AE of all grades [3]: 0 No. (%)
Hypocalcemia, entinostat-related AE of all grades [3]: 0 No. (%)
Hypokalemia, entinostat-related AE of all grades [3]: 0 No. (%)
Hypoproteinemia, entinostat-related AE of all grades [3]: 0 No. (%)
LDH increase, entinostat-related AE of all grades [3]: 0 No. (%)
Leukopenia, entinostat-related AE of all grades [3]: 7 (58.3) No. (%)
Limb pain, entinostat-related AE of all grades [3]: 0 No. (%)
Neutropenia, entinostat-related AE of all grades [3]: 4(33.3) No. (%)
Palpitation, entinostat-related AE of all grades [3]: 2 (16.7) No. (%)
Serum Ca^2+ decrease, entinostat-related AE of all grades [3]: 0 No. (%)
Serum Na+ decrease, entinostat-related AE of all grades [3]: 0 No. (%)
Serum albumin decrease, entinostat-related AE of all grades [3]: 0 No. (%)
Serum phosphate decrease, entinostat-related AE of all grades [3]: 0 No. (%)
Serum urea increase, entinostat-related AE of all grades [3]: 0 No. (%)
Thrombocytopenia, entinostat-related AE of all grades [3]: 2 (16.7) No. (%)
Γ-GT elevation, entinostat-related AE of all grades [3]: 2 (16.7) No. (%)
α-HBDH elevation, entinostat-related AE of all grades [3]: 2 (16.7) No. (%)
AKP elevation, entinostat-related AE of all grades [4]: 0 No. (%)
ALT elevation, entinostat-related AE of all grades [4]: 0 No. (%)
AST elevation, entinostat-related AE of all grades [4]: 0 No. (%)
Abdominal pain, entinostat-related AE of all grades [4]: 0 No. (%)
Anemia, entinostat-related AE of all grades [4]: 0 No. (%)
Back pain, entinostat-related AE of all grades [4]: 0 No. (%)
Chest pain, entinostat-related AE of all grades [4]: 0 No. (%)
Creatine increase, entinostat-related AE of all grades [4]: 0 No. (%)
Creatinine phosphokinase increase, entinostat-related AE of all grades [4]: 0 No. (%)
Debilitation, entinostat-related AE of all grades [4]: 0 No. (%)
Diarrhea, entinostat-related AE of all grades [4]: 0 No. (%)
Fatigue, entinostat-related AE of all grades [4]: 0 No. (%)
Flatulence, entinostat-related AE of all grades [4]: 0 No. (%)
Headache, entinostat-related AE of all grades [4]: 0 No. (%)
Hypoalbuminemia, entinostat-related AE of all grades [4]: 0 No. (%)
Hypocalcemia, entinostat-related AE of all grades [4]: 0 No. (%)
Hypokalemia, entinostat-related AE of all grades [4]: 0 No. (%)
Hypoproteinemia, entinostat-related AE of all grades [4]: 0 No. (%)
LDH increase, entinostat-related AE of all grades [4]: 0 No. (%)
Leukopenia, entinostat-related AE of all grades [4]: 0 No. (%)
Limb pain, entinostat-related AE of all grades [4]: 0 No. (%)
Nausea, entinostat-related AE of all grades [4]: 0 No. (%)
Neutropenia, entinostat-related AE of all grades [4]: 2 (66.7) No. (%)
Palpitation, entinostat-related AE of all grades [4]: 0 No. (%)
Serum Ca^2+ decrease, entinostat-related AE of all grades [4]: 0 No. (%)
Serum Na+ decrease, entinostat-related AE of all grades [4]: 0 No. (%)
Serum albumin decrease, entinostat-related AE of all grades [4]: 0 No. (%)
Serum phosphate decrease, entinostat-related AE of all grades [4]: 0 No. (%)
Serum urea increase, entinostat-related AE of all grades [4]: 0 No. (%)
Thrombocytopenia, entinostat-related AE of all grades [4]: 0 No. (%)
Γ-GT elevation, entinostat-related AE of all grades [4]: 0 No. (%)
α-HBDH elevation, entinostat-related AE of all grades [4]: 0 No. (%)
Patients with entinostat-related AEs (Stage I, all 19 patients): 100%
Dose-limiting toxicity (DLT) in Stage I (all dose groups (3, 5, 7 mg/week)): no patients experienced a DLT; also recorded: no DLT events occurred
Grade 3/4 neutropenia [5]: 31.6%
Grade 3/4 thrombocytopenia [5]: 15.8%
Median tolerance limit (MLT) (throughout the trial, up to 7 mg/week): not achieved
